Patent US11191743B2, “Modulators of zinc activated cation channel” (Dignity Health, priority 2016, dated 2021)
“Also recorded” adds a separate entry of the source. Read-outs that look alike come from different tables or passages of the source.

What was measured:
[1] = biological target: T1, ZACN (Homo sapiens, UniProt Q401N2); assay: Two-electrode voltage-clamp, ZACN expressed in Xenopus laevis oocytes: inhibition or modulation of spontaneous, zinc-activated and suramin-activated current; assay type: cell-based; parameters: host or cells: Xenopus laevis oocytes injected with cRNA (pGEMHE vector, T7 transcript); details: for mode of antagonism: IC50 at 500 μM vs 2 mM Zn2+
T1 sequence (Q401N2 26-412): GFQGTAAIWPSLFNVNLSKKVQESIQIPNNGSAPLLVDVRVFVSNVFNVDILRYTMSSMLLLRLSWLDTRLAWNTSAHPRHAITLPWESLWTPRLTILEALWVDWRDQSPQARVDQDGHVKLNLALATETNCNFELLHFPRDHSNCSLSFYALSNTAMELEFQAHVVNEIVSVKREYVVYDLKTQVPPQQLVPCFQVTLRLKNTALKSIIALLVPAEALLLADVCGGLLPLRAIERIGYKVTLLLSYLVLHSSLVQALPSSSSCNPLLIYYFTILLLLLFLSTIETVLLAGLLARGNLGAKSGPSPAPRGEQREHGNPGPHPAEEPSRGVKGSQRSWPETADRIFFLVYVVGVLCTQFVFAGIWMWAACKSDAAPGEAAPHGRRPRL
Protocol: Stage IV oocytes from Xenopus laevis were injected with Ing of ZACN human mRNA. Prior to recording, oocytes were incubated in the oocyte Ringer's Solution (OR2) with 10 μM D-tubocurarine to inhibit spontaneous channel opening. The oocytes were incubated at 14° C. for three to five days following mRNA injection before recording with two-electrode voltage-clamp. […] Current levels in response to drug applications were normalized to the response to the same concentration of zinc in the absence of the drug. Peak current inhibitions were fitted to the Hill equation to derive IC50 values.
(§1) The cDNA encoding wild type, human ZACN was purchased from OpenBiosystems, and cloned into the pGEMHE vector in the T7 orientation. For cRNA synthesis, cDNA templates were PCR amplified using primers that cover the M13 forward and reverse regions and high fidelity Phusion DNA polymerase (New England Biolab, Ipswich, Mass., USA). PCR products were then purified and served as templates for cRNA synthesis. cRNAs were transcribed by T7 RNA polymerase (Promega, Madison, Wis., USA) using standard in vitro transcription protocols. After digestion of the DNA template by RNase-free DNase I, cRNAs were purified and resuspended in diethyl pyrocarbonate (DEPC)-treated water. cRNA integrity was examined on a 1% agarose gel, and cRNA concentration was determined by optical density measurements at 260 nm using an Eppendorf Biophotometer.
(§2) Oocytes were harvested from female Xenopus laevis (Xenopus I, Ann Arbor, Mich., USA), using the protocol “Xenopus Care and Use” approved by the Institutional Animal Care and Use Committee of the St. Joseph's Hospital and Medical Center. Stage VI oocytes were selected and incubated at 16° C. before injection. Micropipettes for injection were pulled from borosilicate glass (Drummond Scientific, Broomall, Pa., USA) on a Sutter P87 horizontal puller, and the tips were cut with forceps to ≈40 μm in diameter. cRNAs encoding ZACN was drawn up into the micropipette and injected into oocytes with a Nanoject micro-injection system (Drummond Scientific) in a total volume of ˜60 nl and total cRNA of ˜20 ng for each oocyte.
(§3) ValveLink 16 computer-controlled perfusion system was used to switch solutions between the OR2 and a test solution. The perfusion chamber was grounded through an agar salt bridge to avoid alterations in junction potential between the Ag/AgCl grounding electrode and solution when solution/drug changes occurred. Oocytes were voltage-clamped at −70 mV to measure agonist-induced currents using an AxoClamp 900A amplifier (Axon Instruments, Foster City, Calif., USA). The current signal was low-pass filtered at 20 Hz with the built-in 4-pole low-pass Bessel filter and digitized at 100 Hz with a Digidata1440a and pClamp 10 software (Molecular Devices).
(§4) For each oocyte, concentration-inhibition curves for drug-induced inhibition of zinc-activated current responses or concentration response curves for agonist-induced current of the ZACN were fit to the Hill equation using least squares methods (Prism 6.0, GraphPad Software, Inc., San Diego, Calif., USA) to derive IC50 or EC50 values (the concentration required for inducing a half maximal current), Hill coefficients (the slope factor), and maximum current levels in absolute terms. Current levels in each oocyte were normalized to the maximum current in the absence of the inhibitor, allowing normalized data to be averaged across multiple oocytes and to be fit again to the Hill equation. All data are presented as mean±SEM (standard error).

[2] = biological target: T1, ZACN; assay: Two-electrode voltage-clamp, ZACN expressed in Xenopus laevis oocytes: agonist-induced current; assay type: cell-based; parameters: host or cells: Xenopus laevis oocytes injected with cRNA (pGEMHE vector, T7 transcript)
Source text: as §1, §2
as §3, with “Two to 5 days after injection, oocytes expressing ZACN were placed in a home-made, small volume chamber and a 16-channel manifold, continuously perfused with oocyte Ringer's solution (OR2), which consisted of (in mM) 92.5 NaCl, 2.5 KCl, 1 CaCl2, 1 MgCl2 and 5 HEPES, pH 7.5. ValveLink” for “ValveLink”
as §4

Compound | antagonist activity on human ZACN [1] | agonist activity on human ZACN (words) [2] | other results
Nc1ncnc2c1ncn2[C@@H]1O[C@H](COP(=O)(O)OP(=O)(O)OP(=O)(O)O)[C@@H](O)[C@H]1O [ATP] | inhibitor |  | effect on spontaneous current / spontaneous opening [1]: inhibits; effect on suramin-activated current [1]: positive allosteric modulator; also recorded: potentiates; effect on zinc-activated current [1]: antagonist; also recorded: inhibits
COc1cc(-c2ccc(/N=N/c3ccc4c(S(=O)(=O)O)cc(S(=O)(=O)O)c(N)c4c3O)c(OC)c2)ccc1/N=N/c1ccc2c(S(=O)(=O)O)cc(S(=O)(=O)O)c(N)c2c1O [Chicago sky blue] |  | activate the human ZACN | 
Cc1cc(-c2ccc(/N=N/c3ccc4c(S(=O)(=O)O)cc(S(=O)(=O)O)c(N)c4c3O)c(C)c2)ccc1/N=N/c1ccc2c(S(=O)(=O)O)cc(S(=O)(=O)O)c(N)c2c1O [Evans blue] |  | agonists; also recorded: efficacious agonist | 
O=C(Nc1cccc(C(=O)Nc2ccc(S(=O)(=O)O)c3cc(S(=O)(=O)O)cc(S(=O)(=O)O)c23)c1)Nc1cccc(C(=O)Nc2ccc(S(=O)(=O)O)c3cc(S(=O)(=O)O)cc(S(=O)(=O)O)c23)c1 [NF-023] |  | agonist | 
O=C(Nc1cc(C(=O)Nc2ccc(S(=O)(=O)O)cc2)cc(C(=O)Nc2ccc(S(=O)(=O)O)cc2)c1)Nc1cc(C(=O)Nc2ccc(S(=O)(=O)O)cc2)cc(C(=O)Nc2ccc(S(=O)(=O)O)cc2)c1 [NF-110] |  | agonist | 
O=C(Nc1cccc(C(=O)Nc2cc(C(=O)Nc3ccc(S(=O)(=O)O)c4cc(S(=O)(=O)O)cc(S(=O)(=O)O)c34)ccc2F)c1)Nc1cccc(C(=O)Nc2cc(C(=O)Nc3ccc(S(=O)(=O)O)c4cc(S(=O)(=O)O)cc(S(=O)(=O)O)c34)ccc2F)c1 [NF-157] |  | efficacious agonist | agonist activity on human ZACN (words) ([2]; listed as NF157): agonists
O=C(Nc1ccc(C(=O)Nc2ccc(C(=O)Nc3ccc(S(=O)(=O)O)c4cc(S(=O)(=O)O)cc(S(=O)(=O)O)c34)cc2)cc1)Nc1ccc(C(=O)Nc2ccc(C(=O)Nc3ccc(S(=O)(=O)O)c4cc(S(=O)(=O)O)cc(S(=O)(=O)O)c34)cc2)cc1 [NF-279] |  | agonists; also recorded: efficacious agonist | 
O=C(Nc1cc(C(=O)Nc2ccc(S(=O)(=O)O)cc2S(=O)(=O)O)cc(C(=O)Nc2ccc(S(=O)(=O)O)cc2S(=O)(=O)O)c1)Nc1cc(C(=O)Nc2ccc(S(=O)(=O)O)cc2S(=O)(=O)O)cc(C(=O)Nc2ccc(S(=O)(=O)O)cc2S(=O)(=O)O)c1 [NF-449] |  | agonist | concentration at which the small high sensitivity component is saturated [2]: 1 µM
Cc1cc(-c2ccc(/N=N/c3c(S(=O)(=O)O)cc4cc(S(=O)(=O)O)cc(N)c4c3O)c(C)c2)ccc1/N=N/c1c(S(=O)(=O)O)cc2cc(S(=O)(=O)O)cc(N)c2c1O [Trypan blue] |  | agonists; also recorded: efficacious agonist | 
O=S1(=O)OC(c2cc(Br)c(O)c(Br)c2)(c2cc(Br)c(O)c(Br)c2)c2ccccc21 [bromophenol blue] |  | activate the human ZACN | 
Cc1c(C2(c3cc(C(C)C)c(O)c(Br)c3C)OS(=O)(=O)c3ccccc32)cc(C(C)C)c(O)c1Br [bromothymol blue] |  | activate the human ZACN | 
CNCCC(Oc1ccc(C(F)(F)F)cc1)c1ccccc1 (centres unmarked) [fluoxetine] | acted as antagonists |  | mode of antagonism [1]: non-competitive
CCOc1ccccc1OC(c1ccccc1)C1CNCCO1 (centres unmarked) [reboxetine] | acted as antagonists |  | mode of antagonism [1]: non-competitive
Cc1ccc(C(=O)Nc2ccc(S(=O)(=O)O)c3cc(S(=O)(=O)O)cc(S(=O)(=O)O)c23)cc1NC(=O)c1cccc(NC(=O)Nc2cccc(C(=O)Nc3cc(C(=O)Nc4ccc(S(=O)(=O)O)c5cc(S(=O)(=O)O)cc(S(=O)(=O)O)c45)ccc3C)c2)c1 [suramin] |  | agonists; also recorded: efficacious agonist | 
Cc1cc2nc3ccc(N(C)C)cc3[s+]c2cc1N.[Cl-] [toluidine blue] | antagonists |  | high sensitivity component of antagonism, concentration range [1]: nano-molar range; low sensitivity form of antagonism, concentration range [1]: micromolar range
COc1ccc(C(CN(C)C)C2(O)CCCCC2)cc1 (centres unmarked) [venlafaxine] | acted as antagonists |  | mode of antagonism [1]: non-competitive
brilliant blue |  | activate the human ZACN | 
heparin |  | agonist | 
pentosan polysulfate |  | agonist of the human ZACN with high efficacy | agonist activity on human ZACN (words) ([2]; listed as pentosane polysulfate): agonist

Second part, led by results:

antagonist activity on human ZACN [1] | Compound | agonist activity on human ZACN (words) [2] | other results
acted as antagonists | CNCCCN1c2ccccc2CCc2ccccc21 [desipramine] |  | IC50s relative to clinical concentrations [1]: clinically relevant concentrations; relative potency / IC50 for the Zn2+-induced current among seven tested antidepressants [1]: lower IC50 values; mode of antagonism [1]: non-competitive; relative potency / IC50 for the Zn2+-induced current among seven tested antidepressants ([1]; listed as desipranine): most potent antagonists
acted as antagonists | CN(C)CCC=C1c2ccccc2COc2ccccc21 [doxepin] |  | mode of antagonism [1]: non-competitive
antagonists | CN(C)c1ccc2nc3ccc(=[N+](C)C)cc-3sc2c1 [methylene blue] |  | high sensitivity component of antagonism, concentration range [1]: nano-molar range; low sensitivity form of antagonism, concentration range [1]: micromolar range
acted as antagonists | CN1CCN2c3ccccc3Cc3ccccc3C2C1 (centres unmarked) [mianserin] |  | mode of antagonism [1]: non-competitive
antagonists | Cc1cc2nc3ccc(N(C)C)cc3nc2cc1N.Cl [neutral red] |  | high sensitivity component of antagonism, concentration range [1]: nano-molar range; low sensitivity form of antagonism, concentration range [1]: micromolar range
acted as antagonists | CNCC[C@@H](Oc1ccccc1C)c1ccccc1 [tomoxetine] |  | IC50s relative to clinical concentrations [1]: clinically relevant concentrations; relative potency / IC50 for the Zn2+-induced current among seven tested antidepressants [1]: lower IC50 values; mode of antagonism [1]: non-competitive; relative potency / IC50 for the Zn2+-induced current among seven tested antidepressants ([1]; listed as tomoxentine): most potent antagonists
